Data taken from US5840684A, “Glycopeptide antibiotic derivatives” (Eli Lilly and Company, priority 1995, dated 1998).
Values after ≈ are worked out from the molar mass of the structure shown.

Assays:
[1] = system: Staphylococcus aureus S13E; format: cell-based
Description: (§1) The MIC's were determined using a standard broth micro-dilution assay.

[2] = system: Staphylococcus aureus SA1199B; format: cell-based
Description: as §1

[3] = system: Entercoccus faecium 180-1; experiment: broth micro-dilution MIC; format: cell-based
Description: as §1

[4] = system: Entercoccus faecium 276; experiment: broth micro-dilution MIC; format: cell-based
Description: as §1

[5] = system: Staphylococcus aureus SA1199A; experiment: broth micro-dilution MIC; format: cell-based
Description: as §1

[6] = system: Staphylococcus aureus SA1199; experiment: broth micro-dilution MIC; format: cell-based
Description: as §1

[7] = system: Streptococcus pyogenes C203; experiment: broth micro-dilution MIC; format: cell-based
Description: as §1

[8] = system: Entercoccus faecium 180; experiment: broth micro-dilution MIC; format: cell-based; conditions: Entercoccus faecium 180
Description: (§2) The formula I compounds have in vitro and in vivo activity against Gram-positive pathogenic bacteria. The MIC's were determined using a standard broth micro-dilution assay.

[9] = system: Enterococcus gallinarum 245; experiment: broth micro-dilution MIC; format: cell-based; conditions: Enterococcus gallinarum 245
Description: as §2

[10] = system: Streptococcus pneumoniae P1; experiment: broth micro-dilution MIC; format: cell-based
Description: as §2

[11] = system: vancomycin-susceptible enterococci; experiment: broth micro-dilution, mean geometric MIC; format: cell-based, Enterococcus faecium and Enterococcus faecalis; conditions: enterococci, 24-hour incubation
[12] = system: Staphylococcus aureus 446; experiment: broth micro-dilution MIC; format: cell-based
Description: as §1

[13] = system: Staphylococcus aureus 447; experiment: broth micro-dilution MIC; format: cell-based
Description: as §1

[14] = system: Staphylococcus aureus X400; experiment: broth micro-dilution MIC; format: cell-based
Description: as §1

[15] = system: Staphylococcus aureus X778; experiment: broth micro-dilution MIC; format: cell-based
Description: as §1

[16] = system: Entercoccus faecium 2041; experiment: broth micro-dilution MIC; format: cell-based; conditions: Entercoccus faecium 2041
Description: as §2

[17] = system: Staphylococcus epidermidis 270; experiment: broth micro-dilution MIC; format: cell-based
Description: as §2

[18] = system: Staphylococcus haemolyticus 105; experiment: broth micro-dilution MIC; format: cell-based
Description: as §2

[19] = system: vancomycin-resistant enterococci; experiment: broth micro-dilution, mean geometric MIC; format: cell-based, Enterococcus faecium and Enterococcus faecalis; conditions: enterococci, 24-hour incubation
[20] = system: Staphylococcus haemolyticus 415; experiment: broth micro-dilution MIC; format: cell-based
Description: as §2

Row | Structure (SMILES) | MIC [1] [µg/mL] | MIC [2] [µg/mL] | MIC [3] [µg/mL] | MIC [4] [µg/mL] | MIC [5] [µg/mL] | MIC [6] [µg/mL] | MIC [7] [µg/mL] | MIC [8] [µg/mL] | MIC [9] [µg/mL] | MIC [10] [µg/mL] | mean geometric MIC, Vancomycin Sensitive Strains [11] [µg/mL] | MIC [12] [µg/mL] | MIC [13] [µg/mL] | MIC [14] [µg/mL] | MIC [15] [µg/mL] | MIC [16] [µg/mL] | MIC [17] [µg/mL] | MIC [18] [µg/mL] | mean geometric MIC, Vancomycin Resistant Strains [19] [µg/mL] | MIC [20] [µg/mL]
1 | CCCCCCCCCCCCOc1ccc(CNC2(C)CC(OC3C(Oc4c5cc6cc4Oc4ccc(cc4Cl)C(OC4CC(C)(N)C(O)C(C)O4)C4NC(=O)C(NC(=O)C6NC(=O)C(CC(N)=O)NC(=O)C(NC(=O)C(CC(C)C)NC)C(O)c6ccc(c(Cl)c6)O5)c5ccc(O)c(c5)-c5c(O)cc(O)cc5C(C(=O)O)NC4=O)OC(CO)C(O)C3O)OC(C)C2O)cc1 (centres unmarked) [Compound 10] | 8 (≈ 4.29 µM) | 8 (≈ 4.29 µM) | 4 (≈ 2.14 µM) | 18 (≈ 9.64 µM) | 4 (≈ 2.14 µM) | 8 (≈ 4.29 µM) | ≤ 0.06 | 8 (≈ 4.29 µM) | 8 (≈ 4.29 µM) | 0.125 (≈ 0.067 µM) | 3.5 |  |  |  |  |  |  |  |  | 
2 | CNC(CC(C)C)C(=O)NC1C(=O)NC(CC(N)=O)C(=O)NC2C(=O)NC3C(=O)NC(C(=O)NC(C(=O)O)c4cc(O)cc(O)c4-c4cc3ccc4O)C(OC3CC(C)(N)C(O)C(C)O3)c3ccc(c(Cl)c3)Oc3cc2cc(c3OC2OC(CO)C(O)C(O)C2OC2CC(C)(NCCc3cccc(Oc4ccccc4)c3)C(O)C(C)O2)Oc2ccc(cc2Cl)C1O (centres unmarked) [Compound 62] | 0.5 (≈ 0.28 µM) | 1 (≈ 0.559 µM) | ≤ 0.06 | 0.5 (≈ 0.28 µM) | ≤ 0.06 |  | ≤ 0.06 | 4 (≈ 2.24 µM) | 4 (≈ 2.24 µM) | ≤ 0.06 | 0.22 | 2 (≈ 1.12 µM) | 0.5 (≈ 0.28 µM) | ≤ 0.06 | 0.5 (≈ 0.28 µM) | ≤ 0.06 | 1 (≈ 0.559 µM) | 2 (≈ 1.12 µM) | 9.5 | 
3 | CNC(CC(C)C)C(=O)NC1C(=O)NC(CC(N)=O)C(=O)NC2C(=O)NC3C(=O)NC(C(=O)NC(C(=O)O)c4cc(O)cc(O)c4-c4cc3ccc4O)C(OC3CC(C)(N)C(O)C(C)O3)c3ccc(c(Cl)c3)Oc3cc2cc(c3OC2OC(CO)C(O)C(O)C2OC2CC(C)(NCc3ccc4cc(OC)ccc4c3)C(O)C(C)O2)Oc2ccc(cc2Cl)C1O (centres unmarked) [Compound 65] | 0.5 (≈ 0.284 µM) | 2 (≈ 1.13 µM) | ≤ 0.06 | 0.5 (≈ 0.284 µM) | ≤ 0.06 | 0.5 (≈ 0.284 µM) |  | 0.5 (≈ 0.284 µM) | 4 (≈ 2.27 µM) | ≤ 0.06 | 0.20 | 2 (≈ 1.13 µM) | 1 (≈ 0.567 µM) |  | 0.5 (≈ 0.284 µM) | ≤ 0.06 | 1 (≈ 0.567 µM) |  | 2.4 | 4 (≈ 2.27 µM)
4 | CNC(CC(C)C)C(=O)NC1C(=O)NC(CC(N)=O)C(=O)NC2C(=O)NC3C(=O)NC(C(=O)NC(C(=O)O)c4cc(O)cc(O)c4-c4cc3ccc4O)C(OC3CC(C)(N)C(O)C(C)O3)c3ccc(c(Cl)c3)Oc3cc2cc(c3OC2OC(CO)C(O)C(O)C2OC2CC(C)(NCCc3ccc(OCc4ccccc4)cc3)C(O)C(C)O2)Oc2ccc(cc2Cl)C1O (centres unmarked) [Compound 68] | ≤ 0.06 | 0.5 (≈ 0.277 µM) | ≤ 0.06 | ≤ 0.06 | ≤ 0.06 | ≤ 0.06 |  | 2 (≈ 1.11 µM) | 4 (≈ 2.22 µM) |  |  |  |  | ≤ 0.06 | ≤ 0.06 | ≤ 0.06 | 2 (≈ 1.11 µM) | 2 (≈ 1.11 µM) | 6.7 | 4 (≈ 2.22 µM)
5 | CNC(CC(C)C)C(=O)NC1C(=O)NC(CC(N)=O)C(=O)NC2C(=O)NC3C(=O)NC(C(=O)NC(C(=O)O)c4cc(O)cc(O)c4-c4cc3ccc4O)C(OC3CC(C)(N)C(O)C(C)O3)c3ccc(c(Cl)c3)Oc3cc2cc(c3OC2OC(CO)C(O)C(O)C2OC2CC(C)(NCc3cc(-c4ccccc4)ccc3O)C(O)C(C)O2)Oc2ccc(cc2Cl)C1O (centres unmarked) [Compound 85] | 0.5 (≈ 0.282 µM) | 1 (≈ 0.563 µM) | ≤ 0.06 |  | ≤ 0.06 | 0.5 (≈ 0.282 µM) | ≤ 0.06 | ≤ 0.06 | 2 (≈ 1.13 µM) | ≤ 0.06 | 0.11 |  |  |  |  | ≤ 0.06 | 0.5 (≈ 0.282 µM) | 1 (≈ 0.563 µM) | 3.4 | 2 (≈ 1.13 µM)
6 | CNC(CC(C)C)C(=O)NC1C(=O)NC(CC(N)=O)C(=O)NC2C(=O)NC3C(=O)NC(C(=O)NC(C(=O)O)c4cc(O)cc(O)c4-c4cc3ccc4O)C(OC3CC(C)(N)C(O)C(C)O3)c3ccc(c(Cl)c3)Oc3cc2cc(c3OC2OC(CO)C(O)C(O)C2OC2CC(C)(NCc3ccc(N4CCCCC4C)cc3)C(O)C(C)O2)Oc2ccc(cc2Cl)C1O (centres unmarked) [Compound 135] | 1 (≈ 0.562 µM) |  | ≤ 0.06 | 0.5 (≈ 0.281 µM) | ≤ 0.06 | 1 (≈ 0.562 µM) | ≤ 0.06 | 1 (≈ 0.562 µM) | 2 (≈ 1.12 µM) | ≤ 0.06 | 0.22 | 1 (≈ 0.562 µM) | 1 (≈ 0.562 µM) | ≤ 0.06 | 1 (≈ 0.562 µM) |  | 0.5 (≈ 0.281 µM) | 0.5 (≈ 0.281 µM) | 4.8 | 2 (≈ 1.12 µM)
7 | CNC(CC(C)C)C(=O)NC1C(=O)NC(CC(N)=O)C(=O)NC2C(=O)NC3C(=O)NC(C(=O)NC(C(=O)O)c4cc(O)cc(O)c4-c4cc3ccc4O)C(OC3CC(C)(N)C(O)C(C)O3)c3ccc(c(Cl)c3)Oc3cc2cc(c3OC2OC(CO)C(O)C(O)C2OC2CC(C)(NCc3ccc(S(=O)(=O)c4ccc(Cl)cc4)cc3)C(O)C(C)O2)Oc2ccc(cc2Cl)C1O (centres unmarked) [Compound 148] | 1 (≈ 0.538 µM) | 0.5 (≈ 0.269 µM) | ≤ 0.06 | ≤ 0.06 | ≤ 0.06 | 2 (≈ 1.08 µM) | ≤ 0.06 |  | 2 (≈ 1.08 µM) | ≤ 0.06 | 0.052 | 1 (≈ 0.538 µM) | 1 (≈ 0.538 µM) | ≤ 0.06 | 2 (≈ 1.08 µM) | ≤ 0.06 | 0.5 (≈ 0.269 µM) | 1 (≈ 0.538 µM) | 0.15 | 2 (≈ 1.08 µM)
